{
  "source": "patent US4065557A",
  "about": "“Amino sugars and their use in improving the meat:fat ratio in animals” (Bayer Aktiengesellschaft, priority 1974, dated 1977)",
  "key": {"starch digestion": {"test_system": "starch digestion", "assay": "In vivo starch digestion (starch feeding test)"}, "Solubility": {"assay": "Solubility", "type": "physicochemical"}, "saccharase": {"target": "T1, saccharase (Sus scrofa, UniProt P56729)", "T1 construct": "from tissue; host or cells: mucous membrane of the small intestine of the pig, solubilized according to Borgstrom and Dahlquist 1958", "T1 sequence (P56729 with tags, fused parts or gaps limits assumed)": "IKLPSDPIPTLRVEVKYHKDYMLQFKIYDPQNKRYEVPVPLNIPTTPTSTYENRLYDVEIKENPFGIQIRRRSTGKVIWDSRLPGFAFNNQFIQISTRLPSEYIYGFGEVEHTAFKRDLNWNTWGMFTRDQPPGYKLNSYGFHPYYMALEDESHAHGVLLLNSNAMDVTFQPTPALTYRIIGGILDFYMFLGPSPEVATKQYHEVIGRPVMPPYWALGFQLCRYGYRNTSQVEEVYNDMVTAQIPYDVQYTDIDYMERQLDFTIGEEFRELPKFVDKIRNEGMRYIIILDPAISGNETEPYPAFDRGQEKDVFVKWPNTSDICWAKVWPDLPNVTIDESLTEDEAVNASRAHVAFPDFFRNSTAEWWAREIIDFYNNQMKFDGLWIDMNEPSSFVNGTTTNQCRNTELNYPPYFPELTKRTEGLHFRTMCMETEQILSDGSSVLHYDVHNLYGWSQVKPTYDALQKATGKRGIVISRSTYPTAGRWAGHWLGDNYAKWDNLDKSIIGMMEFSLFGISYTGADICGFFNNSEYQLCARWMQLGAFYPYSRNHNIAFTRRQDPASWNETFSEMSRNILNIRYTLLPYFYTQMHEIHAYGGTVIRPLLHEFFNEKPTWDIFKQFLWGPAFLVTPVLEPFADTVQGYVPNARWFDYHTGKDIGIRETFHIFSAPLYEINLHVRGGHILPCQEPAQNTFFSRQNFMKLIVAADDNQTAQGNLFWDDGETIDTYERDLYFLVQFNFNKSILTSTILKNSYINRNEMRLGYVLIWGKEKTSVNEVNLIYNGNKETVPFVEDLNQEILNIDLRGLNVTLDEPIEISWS", "T1 sequence (P56729 with tags, fused parts or gaps partner limits assumed)": "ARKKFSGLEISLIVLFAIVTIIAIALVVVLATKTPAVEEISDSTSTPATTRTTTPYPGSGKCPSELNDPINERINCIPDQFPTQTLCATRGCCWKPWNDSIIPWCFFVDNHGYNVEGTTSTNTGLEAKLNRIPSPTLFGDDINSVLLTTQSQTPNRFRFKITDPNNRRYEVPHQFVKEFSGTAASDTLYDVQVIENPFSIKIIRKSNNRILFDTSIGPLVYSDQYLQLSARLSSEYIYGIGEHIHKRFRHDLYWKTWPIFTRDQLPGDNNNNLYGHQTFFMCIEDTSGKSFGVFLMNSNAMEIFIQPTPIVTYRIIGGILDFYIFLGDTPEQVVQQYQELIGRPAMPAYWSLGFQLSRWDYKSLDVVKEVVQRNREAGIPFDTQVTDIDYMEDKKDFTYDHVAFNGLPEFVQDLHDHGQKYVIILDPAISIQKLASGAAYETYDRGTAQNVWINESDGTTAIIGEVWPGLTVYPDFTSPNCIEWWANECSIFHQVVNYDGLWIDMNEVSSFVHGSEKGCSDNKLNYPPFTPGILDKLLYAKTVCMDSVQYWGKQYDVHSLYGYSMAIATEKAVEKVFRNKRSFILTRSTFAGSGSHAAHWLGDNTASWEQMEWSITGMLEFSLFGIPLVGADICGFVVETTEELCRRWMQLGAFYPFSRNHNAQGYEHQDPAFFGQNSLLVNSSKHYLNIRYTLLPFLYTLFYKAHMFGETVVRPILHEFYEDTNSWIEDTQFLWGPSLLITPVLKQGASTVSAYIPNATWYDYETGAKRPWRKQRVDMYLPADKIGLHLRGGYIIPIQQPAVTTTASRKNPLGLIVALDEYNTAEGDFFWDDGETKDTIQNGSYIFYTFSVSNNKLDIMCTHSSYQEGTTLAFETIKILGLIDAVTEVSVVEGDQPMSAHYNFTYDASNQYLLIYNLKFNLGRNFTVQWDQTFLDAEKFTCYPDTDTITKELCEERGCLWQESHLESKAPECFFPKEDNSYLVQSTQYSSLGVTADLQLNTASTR", "assay": "In vitro saccharase test", "type": "biochemical, pig", "conditions": "for saccharase inhibitor specific activity: sucrose, pH 6.0, 35° C", "procedure": "One saccharase inhibitor unit (SIU) is defined as the amount of inhibitor which inhibits two saccharase units to the extent of 50%. One saccharase unit (SU) is the amount of enzyme which under the test conditions specified splits 1 μmol of sucrose to glucose and fructose per minute. The μmols of glucose formed are determined quantitatively by means of the glucose oxidase reaction under conditions under which a further splitting of the sucrose by the saccharase no longer takes place. To carry out the test, 0.05 ml of solubilized saccharase [from the mucous membrane of the small intestine of the pig, according to B. Borgstrom, A. Dahlquist, Acta Chem. Scand. […] The mixture is equilibrated for 10 minutes at 35° C and 0.1 ml of an 0.05 M sucrose solution in 0.1 m sodium maleate buffer of pH 6.0, pre-warmed to 35° C, is then added. The mixture is incubated for 20 minutes at 35° C, the saccharase reaction is stopped by addition of 1 ml of glucose oxidase reagent, and the incubation is continued for a further 30 minutes at 35° C. […] Thereafter, 1 ml of 50% strength H2 SO4 is added and a measurement carried out at 545 nm against a corresponding blank."}, "pancreas-α-amylase": {"target": "T2, pancreas-α-amylase (Sus scrofa, UniProt P00690)", "T2 sequence (P00690 16-511)": "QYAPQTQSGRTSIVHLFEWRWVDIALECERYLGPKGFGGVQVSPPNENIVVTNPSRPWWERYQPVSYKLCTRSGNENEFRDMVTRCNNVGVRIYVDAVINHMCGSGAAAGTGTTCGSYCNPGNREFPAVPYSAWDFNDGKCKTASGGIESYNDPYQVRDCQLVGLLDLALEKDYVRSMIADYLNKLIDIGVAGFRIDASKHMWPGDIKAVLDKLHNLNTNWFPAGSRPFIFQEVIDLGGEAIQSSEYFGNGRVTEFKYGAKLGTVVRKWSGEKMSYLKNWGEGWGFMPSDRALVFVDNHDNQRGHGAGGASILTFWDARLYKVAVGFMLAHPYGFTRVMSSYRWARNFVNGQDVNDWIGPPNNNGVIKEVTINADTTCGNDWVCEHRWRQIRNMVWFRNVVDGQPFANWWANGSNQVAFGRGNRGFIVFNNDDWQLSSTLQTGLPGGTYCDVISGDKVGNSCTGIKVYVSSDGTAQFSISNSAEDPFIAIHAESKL", "assay": "In vitro amylase test", "type": "biochemical", "conditions": "isolated product; starch, pH 6.9, 35° C", "procedure": "One amylase unit (AU) is the amount of enzyme which under the test conditions specified below splits 1 μequivalent of glucoside bonds in the starch per minute. […] To carry out the test, 0.1 ml of amylase solution (20-22 AU/ml) are mixed with 0-10 μg of inhibitor or 0-20 μl of the solution to be tested in 0.4 ml of 0.02 M sodium glycerophosphate buffer/0.001 M CaCl2, pH 6.9, and the mixture is equilibrated for 10-20 minutes in a water bath at 35° C. […] To develop the color, the batch is heated for 5 minutes on a boiling water bath and then cooled, and 10 ml of distilled water are added. The extinction at 540 nm is measured against a correspondingly made-up blank without amylase. […] The percentage inhibition is plotted as a function of the quotient [formula]"}},
  "data": [
    {"smiles": "C[C@H]1O[C@H](O[C@H]2[C@H](O)[C@@H](O)[C@@H](O[C@H]3[C@H](O)[C@@H](O)C(O)O[C@@H]3CO)O[C@@H]2CO)[C@H](O)[C@@H](O)[C@@H]1N[C@H]1C=C(CO)[C@@H](O)[C@H](O)[C@H]1O", "note": "(stereo partly drawn) [compound having 2 glucose units, O-{4,6-bisdesoxy-4-[1 S-(1,4,6/5)-4,5,6-trihydroxy-3-hydroxymethylcyclohex-2-en-1-ylamino]-α-D-glucopyranosyl}-(1→4)-O-α-D-glucopyranosyl-(1→4)-D-glucopyranose]", "values": [
      {"measurement": "in vivo inhibition of starch digestion (in words)", "setting": "starch digestion", "value": "much higher than would be expected from in vitro amylase inhibition"},
      {"measurement": "solubility in water", "setting": "Solubility; amorphous solid", "value": "readily water-soluble"},
      {"measurement": "in vitro saccharase inhibition (in words)", "setting": "saccharase; in vitro", "value": "most pronounced"},
      {"measurement": "saccharase inhibitor specific activity", "setting": "saccharase", "value": "50,000 SIU/g"},
      {"measurement": "saccharase inhibitor specific activity", "setting": "saccharase; listed as compound with 2 glucose units", "value": "60,000 SIU/g"},
      {"measurement": "saccharase inhibitor specific activity", "setting": "saccharase; listed as compound with 2 units", "value": "68,000 SIU/g"},
      {"measurement": "saccharase inhibitor specific activity", "setting": "saccharase; listed as compound with two glucose units", "value": "65,000 SIU/g"},
      {"measurement": "amylase inhibitor specific activity", "setting": "pancreas-α-amylase", "value": "0.3 × 10^6 AIU/g"}
    ]},
    {"smiles": "C[C@H]1O[C@H](O[C@H]2[C@H](O)[C@@H](O)C(O)O[C@@H]2CO)[C@H](O)[C@@H](O)[C@@H]1N[C@H]1C=C(CO)[C@@H](O)[C@H](O)[C@H]1O", "note": "(stereo partly drawn) [compound having one glucose unit, O-{4,6-bisdesoxy-4-[1 S-(1,4,6/5)-4,5,6-trihydroxy-3-hydroxymethylcyclohex-2-en-1-ylamino]-α-D-glucopyranosyl}-(1→4)-D-glucopyranose]", "values": [
      {"measurement": "in vivo inhibition of starch digestion (in words)", "setting": "starch digestion", "value": "much higher than would be expected from in vitro amylase inhibition"},
      {"measurement": "solubility", "setting": "Solubility; water, dimethylformamide, dimethylsulfoxide, methanol and hot ethanol", "value": "good solubility"},
      {"measurement": "saccharase inhibition relative to the derivative having two units", "setting": "saccharase; in vitro", "value": "only half as much"},
      {"measurement": "saccharase inhibitor specific activity", "setting": "saccharase", "value": "30,000 SIU/g"},
      {"measurement": "saccharase inhibitor specific activity", "setting": "saccharase; listed as compound with one glucose unit", "value": "35,000 SIU/g"},
      {"measurement": "amylase inhibitor specific activity", "setting": "pancreas-α-amylase", "value": "0.3 × 10^6 AIU/g"}
    ]},
    {"smiles": "C[C@H]1O[C@H](O[C@H]2[C@H](O)[C@@H](O)[C@@H](O[C@H]3[C@H](O)[C@@H](O)[C@@H](O[C@H]4[C@H](O)[C@@H](O)C(O)O[C@@H]4CO)O[C@@H]3CO)O[C@@H]2CO)[C@H](O)[C@@H](O)[C@@H]1N[C@H]1C=C(CO)[C@@H](O)[C@H](O)[C@H]1O", "note": "(stereo partly drawn) [isomer of Formula V, O-{4,5-bisdesoxy-4-[1S-(1,4,6/5)-4,5,6-trihydroxy-3-hydroxymethylcyclohex-2-en-1-ylamino]-α-D-glucopyranosyl}-(1→4)-O-α-D-glucopyranosyl-(1→4)-O-α-D-glucopyranosyl-(1→4)-D-glycopyranose]", "values": [
      {"measurement": "in vitro saccharase inhibiting activity", "setting": "saccharase; isomer isolated on Dowex 50 W X 4", "value": "19,000 SIE/g"}
    ]}
  ]
}
